target: T1, microsomal h-COX2 (Homo sapiens, UniProt P35354); assay: Microsomal assay: inhibitory activity against microsomal h-COX2; type: biochemical; conditions: microsomal preparation from baculovirus infected SF9 cells; 1 hour incubation with compound; 0.1 μM arachidonic acid, 10 minutes; PGE2 by EIA; read-out: IC50 values for inhibition of COX-2
T1 construct: made in house; host or cells: baculovirus infected SF9 cells (microsomal preparation)
T1 sequence (P35354 18-604): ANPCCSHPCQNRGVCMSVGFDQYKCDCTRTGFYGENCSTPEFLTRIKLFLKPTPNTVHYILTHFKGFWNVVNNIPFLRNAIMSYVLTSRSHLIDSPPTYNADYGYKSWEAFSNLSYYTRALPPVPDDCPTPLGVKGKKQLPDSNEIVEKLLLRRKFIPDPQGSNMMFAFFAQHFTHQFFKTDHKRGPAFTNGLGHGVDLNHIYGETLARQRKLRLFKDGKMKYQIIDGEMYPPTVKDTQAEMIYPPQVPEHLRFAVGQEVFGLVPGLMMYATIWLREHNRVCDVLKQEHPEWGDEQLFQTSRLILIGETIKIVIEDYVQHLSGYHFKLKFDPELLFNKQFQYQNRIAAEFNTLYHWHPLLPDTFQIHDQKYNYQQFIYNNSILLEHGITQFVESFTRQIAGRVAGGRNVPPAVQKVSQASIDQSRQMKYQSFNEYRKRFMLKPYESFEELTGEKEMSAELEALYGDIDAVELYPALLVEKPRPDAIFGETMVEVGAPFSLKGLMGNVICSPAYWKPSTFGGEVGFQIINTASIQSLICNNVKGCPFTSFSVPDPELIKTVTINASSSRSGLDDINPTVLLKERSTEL
Description: Biological Data Microsomal Assay
Inhibitory activity against microsomal h-COX2 was assessed against a microsomal preparation from baculovirus infected SF9 cells. An aliquot of microsomal preparation was thawed slowly on ice and a 1/40,000 dilution prepared from it into the assay buffer (sterile water, degassed with argon containing 100 mM HEPES (pH 7.4), 10 mM EDTA (pH7.4), 1 mM phenol, 1 mM reduced glutathione, 20 mg/ml gelatin and 0.001 mM Hematin). Once diluted the enzyme solution was then sonicated for 5 seconds (Branson sonicator, setting 4, 1 cm tip) to ensure a homogeneous suspension. 155 μl enzyme solution was then added to each well of a 96-well microtitre plate containing either 5 μl test compound (40× required test concentration) or 5 μl DMSO for controls. Plates were then mixed and incubated at room temperature for 1 hour. Following the incubation period, 40 μl of 0.5 μM arachidonic acid was added to each well to give a final concentration of 0.1 μM. Plates were then mixed and incubated for exactly 10 minutes (room temperature) prior to addition of 25 μl 1M HCl (hydrochloric acid) to each well to stop the reaction. 25 μl of 1M NaOH (sodium hydroxide) was then added to each well to neutralise the solution prior to determination of PGE2 levels by enzyme immunoassay (EIA).

| SMILES | IC50 |
| --- | --- |
| Cc1cc(NCc2cnn(C)c2)nc(-c2ccc(S(C)(=O)=O)cc2)c1 [Example 83, N-[(1-methyl-1H-pyrazol-4-yl)methyl]-4-methyl-6-[4-(methylsulfonyl)phenyl]pyridine-2-amine] | ≤ 500 nM |
| CCc1cc(NCc2ncc[nH]2)nc(-c2ccc(S(C)(=O)=O)cc2)c1 [Example 84] | ≤ 500 nM |
| Cc1cc(OCc2cc(C)on2)nc(-c2ccc(S(C)(=O)=O)cc2)c1 [Example 88] | ≤ 500 nM |
| CCc1cc(NC2CCOCC2)nc(-c2ccc(S(C)(=O)=O)cc2)c1 [Example 89, 4-Ethyl-6-[4-(methylsulfonyl)phenyl]-N-(tetrahydro-2H-pyran-4-yl)pyridine-2-amine] | ≤ 500 nM |
| Cc1cc(N[C@@H](C)c2ccccc2)nc(-c2ccc(S(C)(=O)=O)cc2)c1 [Example 94] | ≤ 500 nM |
| Cc1cc(NCc2ccccc2C)nc(-c2ccc(S(C)(=O)=O)cc2)c1 [Example 95] | ≤ 500 nM |
| CCc1cc(OCc2ccccc2)nc(-c2ccc(S(C)(=O)=O)cc2)c1 [Example 96] | ≤ 500 nM |
| Cc1cc(NCc2ccc(C)nc2)nc(-c2ccc(S(C)(=O)=O)cc2)c1 [Example 98] | ≤ 500 nM |
| CCc1cc(Nc2ccc(C)nc2)nc(-c2ccc(S(C)(=O)=O)cc2)c1 [Example 99] | ≤ 500 nM |
| CCc1cc(OCc2cccnc2)nc(-c2ccc(S(C)(=O)=O)cc2)c1 [Example 101] | ≤ 500 nM |
| CCc1cc(NCc2nccn2C)nc(-c2ccc(S(C)(=O)=O)cc2)c1 [Example 108] | ≤ 500 nM |
| Cc1cc(-c2ccc(S(C)(=O)=O)cc2)nc(N(C)Cc2nccn2C)c1 [Example 110] | ≤ 500 nM |
| Cc1cc(NCc2cn(C)nc2C)nc(-c2ccc(S(C)(=O)=O)cc2)c1 [Example 113] | ≤ 500 nM |
| Cc1cc(NCc2cnn(C)c2C)nc(-c2ccc(S(C)(=O)=O)cc2)c1 [Example 114] | ≤ 500 nM |
| CCc1cc(OCc2ccnn2C)nc(-c2ccc(S(C)(=O)=O)cc2)c1 [Example 116] | ≤ 500 nM |
| CCc1cc(NCc2cccs2)nc(-c2ccc(S(C)(=O)=O)cc2)c1 [Example 120] | ≤ 500 nM |
| Cc1cc(NCc2cc(C)ns2)nc(-c2ccc(S(C)(=O)=O)cc2)c1 [Example 123] | ≤ 500 nM |
| Cc1cc(NCc2csnc2C)nc(-c2ccc(S(C)(=O)=O)cc2)c1 [Example 125] | ≤ 500 nM |

| SMILES | IC50 |
| --- | --- |
| Cc1cc(NCc2cnn(CF)c2)nc(-c2ccc(S(C)(=O)=O)cc2)c1 [Example 126] | ≤ 500 nM |
| Cc1cc(-c2ccc(S(C)(=O)=O)cc2)nc(NCc2cnn(C)c2)c1C#N [Example 131] | ≤ 500 nM |
| CCc1cc(OCc2ccc(C)nc2)nc(-c2ccc(S(C)(=O)=O)cc2)c1 [Example 134] | ≤ 500 nM |
| CCc1cc(OCc2cccc(C)n2)nc(-c2ccc(S(C)(=O)=O)cc2)c1 [Example 135] | ≤ 500 nM |
| CCc1cc(NCc2nc(C)cs2)nc(-c2ccc(S(C)(=O)=O)cc2)c1 [Example 142] | ≤ 500 nM |
| CCc1cc(-c2ccc(S(C)(=O)=O)cc2)nc(NCc2cnn(C)c2)c1F [Example 143] | ≤ 500 nM |
| CCc1cc(NCc2cnn(CF)c2)nc(-c2ccc(S(C)(=O)=O)cc2)c1 [Example 144] | ≤ 500 nM |
| Cc1cc(-c2ccc(S(C)(=O)=O)cc2)nc(NCc2cnn(C)c2)c1Cl [Example 147] | ≤ 500 nM |
| CC(C)(C)c1cc(NCc2ccccc2)nc(-c2ccc(S(C)(=O)=O)cc2)c1 [Example 151] | ≤ 500 nM |
| CS(=O)(=O)c1ccc(-c2cc(C(F)(F)F)cc(NCc3ncc[nH]3)n2)cc1 [Example 153] | ≤ 500 nM |
| Cc1cc(OCc2ccc(C)nc2)nc(-c2ccc(S(C)(=O)=O)cc2)c1 [Example 158] | ≤ 500 nM |
| Cc1ncccc1Nc1cc(C(F)(F)F)cc(-c2ccc(S(C)(=O)=O)cc2)n1 [Example 160] | ≤ 500 nM |
| Cc1cccc(Nc2cc(C(F)(F)F)cc(-c3ccc(S(C)(=O)=O)cc3)n2)n1 [Example 162] | ≤ 500 nM |
| CS(=O)(=O)c1ccc(-c2cc(C(F)(F)F)cc(OCc3ccccn3)n2)cc1 [Example 164, 2-[4-(methylsulfonyl)phenyl]-6-[(2-pyridinylmethyl)oxy]-4-(trifluoromethyl)pyridine] | ≤ 500 nM |
| CS(=O)(=O)c1ccc(-c2cc(C(F)(F)F)cc(OCc3cccnc3)n2)cc1 [Example 166] | ≤ 500 nM |
| CS(=O)(=O)c1ccc(-c2cc(C(F)(F)F)cc(NCc3cnccn3)n2)cc1 [Example 168] | ≤ 500 nM |
| CN(Cc1ccco1)c1cc(C(F)(F)F)cc(-c2ccc(S(C)(=O)=O)cc2)n1 [Example 170] | ≤ 500 nM |
| Cn1cc(CNc2cc(C(F)(F)F)cc(-c3ccc(S(C)(=O)=O)cc3)n2)cn1 [Example 171] | ≤ 500 nM |

The next lines start with the values.

| IC50 | SMILES |
| --- | --- |
| ≤ 500 nM | Cc1cc(OCc2cc(C)n[nH]2)nc(-c2ccc(S(C)(=O)=O)cc2)c1 [Example 85] |
| ≤ 500 nM | Cc1cc(OCc2ccnn2C)nc(-c2ccc(S(C)(=O)=O)cc2)c1 [Example 86] |
| ≤ 500 nM | Cc1cc(NCc2ncnn2C)nc(-c2ccc(S(C)(=O)=O)cc2)c1 [Example 87] |
| ≤ 500 nM | CS(=O)(=O)c1ccc(-c2cc(CF)cc(NC3CCCCC3)n2)cc1 [Example 92] |
| ≤ 500 nM | CCc1cc(NCc2ccccc2)nc(-c2ccc(S(C)(=O)=O)cc2)c1 [Example 93] |
| ≤ 500 nM | CCc1cc(NCc2cnccn2)nc(-c2ccc(S(C)(=O)=O)cc2)c1 [Example 103] |
| ≤ 500 nM | CS(=O)(=O)c1ccc(-c2cc(CF)cc(NCc3ccccc3)n2)cc1 [Example 104] |
| ≤ 500 nM | CCc1cc(Nc2ccc(F)cc2)nc(-c2ccc(S(C)(=O)=O)cc2)c1 [Example 105] |
| ≤ 500 nM | CCc1cc(NCc2[nH]cnc2C)nc(-c2ccc(S(C)(=O)=O)cc2)c1 [Example 109] |
| ≤ 500 nM | CCn1ccnc1CNc1cc(C)cc(-c2ccc(S(C)(=O)=O)cc2)n1 [Example 112] |
| ≤ 500 nM | CCc1cc(NCc2cnn(C)c2)nc(-c2ccc(S(C)(=O)=O)cc2)c1 [Example 115] |
| ≤ 500 nM | Cc1cc(NCc2nc(C)cs2)nc(-c2ccc(S(C)(=O)=O)cc2)c1 [Example 124] |
| ≤ 500 nM | CCN(Cc1ccccc1)c1cc(C)cc(-c2ccc(S(C)(=O)=O)cc2)n1 [Example 128] |
| ≤ 500 nM | CCc1cc(NCc2ccc(C)cc2)nc(-c2ccc(S(C)(=O)=O)cc2)c1 [Example 129] |
| ≤ 500 nM | CCc1cc(OCc2cccnc2C)nc(-c2ccc(S(C)(=O)=O)cc2)c1 [Example 133] |
| ≤ 500 nM | CCc1cc(NCc2cnn(C)c2C)nc(-c2ccc(S(C)(=O)=O)cc2)c1 [Example 139] |
| ≤ 500 nM | CCc1cc(-c2ccc(S(C)(=O)=O)cc2)nc(NCc2ccccc2)c1C#N [Example 148] |
| ≤ 500 nM | Cc1ccc(COc2nc(-c3ccc(S(C)(=O)=O)cc3)cc(C)c2C#N)cn1 [Example 149] |
| ≤ 500 nM | CS(=O)(=O)c1ccc(-c2cc(C(F)(F)F)cc(Oc3cccnc3)n2)cc1 [Example 150] |
| ≤ 500 nM | CCOc1ccc(Nc2cc(CC)cc(-c3ccc(S(C)(=O)=O)cc3)n2)cc1 [Example 154] |
| ≤ 500 nM | Cc1ccc(Nc2cc(C(F)(F)F)cc(-c3ccc(S(C)(=O)=O)cc3)n2)cn1 [Example 163] |
| ≤ 500 nM | Cc1ncccc1Oc1cc(C(F)(F)F)cc(-c2ccc(S(C)(=O)=O)cc2)n1 [Example 165] |
| ≤ 500 nM | Cc1ccc(Oc2cc(C(F)(F)F)cc(-c3ccc(S(C)(=O)=O)cc3)n2)cn1 [Example 167] |
| ≤ 500 nM | CS(=O)(=O)c1ccc(-c2cc(C(F)(F)F)cc(Nc3ccc(F)cc3)n2)cc1 [Example 169] |
